Data from US12590953B2, “Methods for screening cereblon modifying compounds” (CELGENE CORPORATION, priority 2018, dated 2026).
“Also recorded” adds a separate entry of the source.

Legend:
[1] = target: T1, mouse SALL4 zinc fingers / human cereblon (UniProt Q8BX22+Q96SW2); assay: In vitro ubiquitination of mouse SALL4 zinc fingers by human cereblon; assay type: biochemical; conditions: with thalidomide
T1 construct: Human cereblon-DDB1 (cereblon amino acids 40-442 and full length DDB1); the mouse SALL4 zinc finger amino acids 410-438 (orthologous to human ZF2); ZZ-domain-6xHis-thrombin site (N, cleaved yes); made in house; host or cells: SF9 insect cells (cereblon-DDB1, Cul4A-Rbx1); E. coli BL21 (DE3) Star (MBP-zinc finger)
Method: (§1) Full length human cereblon, full length mouse cereblon, and full length rabbit cereblon were co-expressed with full length human DDB1 in SF9 insect cells in ESF921 medium in the presence of 50 uM zinc acetate. Cells were resuspended in buffer containing 50 mM Tris-HCl pH 7.5, 500 mM NaCl, 10 mM imidazole, 10% glycerol, 2 mM TCEP, 1× Protease Inhibitor Cocktail (San Diego Bioscience), and 40,000 U Benzonase (Novagen), and sonicated for 30 s. Lysate was clarified by high speed spin at 30,000 rpm for 30 minutes, and clarified lysate was incubated with Ni-NTA affinity resin (Qiagen) for 1 hour. Complex was eluted with buffer containing 500 mM imidazole, and the ZZ-domain-6×His tag removed by thrombin cleavage (Enzyme Research) overnight, combined with dialysis in 10 mM imidazole buffer. Cleaved eluate was incubated with Ni-NTA affinity resin (Qiagen), and the flow-through diluted to 200 mM NaCl for further purification over a Sephacryl S-400 16/60 column (GE Healthcare) in buffer containing 10 mM HEPES pH 7.0, 240 mM NaCl, and 3 mM TECP.
(§2) Purified E1, E2, ubiquitin, Cul4A-Rbx1, cereblon-DDB1, and GSPT1 proteins were used to reconstitute the ubiquitination of MBP-fused WT and mutant proteins in vitro. Substrate proteins purified by maltose affinity resin (NEB) were incubated at an approximate concentration of 30 uM. […]

[2] = target: T2, mouse SALL4 zinc fingers / human cereblon (Homo sapiens, UniProt Q96SW2); assay: as above; assay type: biochemical; conditions: thalidomide vs DMSO
T2 construct: Human cereblon-DDB1 (cereblon amino acids 40-442 and full length DDB1); the mouse SALL4 zinc finger amino acids 410-438 (orthologous to human ZF2); ZZ-domain-6xHis-thrombin site (N, cleaved yes); made in house; host or cells: SF9 insect cells (cereblon-DDB1, Cul4A-Rbx1); E. coli BL21 (DE3) Star (MBP-zinc finger)
Method: as §1, §2

SALL4 = target: T3, SALL4 (Mus musculus, UniProt Q8BX22); assay: SALL4 immunohistochemistry in wild-type mouse testis; assay type: in vivo; conditions: wild type mice, 1000 mg/kg
T3 construct: tissue Taconic; host or cells: wild-type mouse testis (C57Bl/6Ntac)
Method: The SALL4 and ZFP91 protein levels were examined by immunohistochemistry in rabbit, wild-type mouse, and humanized cereblon mouse testes. […] HuCRBN Mice were treated for 7 days and testis were collected and examined by immunohistochemistry (n=3 animals per treatment group per species).
Rabbit embryos were stained for SALL4, and mouse testis were stained for SALL4 and ZFP91. Immunohistochemistry (IHC) was performed on the Bond-III automated slide stainer (Leica Microsystems, Buffalo Grove, Ill.) using the Bond Polymer Refine Detection system (Leica Microsystems, DS9800). Formalin fixed paraffin embedded (FFPE) tissues were sectioned at four micron thick and deparaffinized on the Bond-Max instrument. Antigen retrieval was performed with Epitope Retrieval 2 (ER2, pH 9.0) for 20 min at 100° C. The slides were blocked for endogenous peroxidase activity with Peroxide Block for 5 minutes at room temperature. Sections were then incubated with the mouse monoclonal anti-SALL4 EE-30 antibody (Santa Cruz, sc-101147) at a 1:100 dilution for 60 min at room temperature, or with the rabbit monoclonal anti-ZFP91 antibody (Celgene custom clone 122-8-6) at 0.25 ug/ml. For mouse testis, primary antibodies were incubated for 15 min at room temperature, and Post-Primary and horseradish peroxidase (HRP) labeled Polymer were incubated at the instrument's default conditions. […]

T1 sequence (Q96SW2 40-442): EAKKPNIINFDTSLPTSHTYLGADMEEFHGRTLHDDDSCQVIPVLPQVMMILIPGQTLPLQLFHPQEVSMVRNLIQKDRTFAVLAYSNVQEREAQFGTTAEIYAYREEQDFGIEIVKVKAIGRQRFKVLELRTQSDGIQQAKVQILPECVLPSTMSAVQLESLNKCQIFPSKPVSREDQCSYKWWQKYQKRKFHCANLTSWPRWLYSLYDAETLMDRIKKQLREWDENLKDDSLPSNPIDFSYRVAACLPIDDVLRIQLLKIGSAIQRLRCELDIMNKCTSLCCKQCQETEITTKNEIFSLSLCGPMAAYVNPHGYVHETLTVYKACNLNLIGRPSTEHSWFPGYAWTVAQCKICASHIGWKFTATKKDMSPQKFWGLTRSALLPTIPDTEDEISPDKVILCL
T1 sequence (Q16531 whole entry partner, the tested form may be a part): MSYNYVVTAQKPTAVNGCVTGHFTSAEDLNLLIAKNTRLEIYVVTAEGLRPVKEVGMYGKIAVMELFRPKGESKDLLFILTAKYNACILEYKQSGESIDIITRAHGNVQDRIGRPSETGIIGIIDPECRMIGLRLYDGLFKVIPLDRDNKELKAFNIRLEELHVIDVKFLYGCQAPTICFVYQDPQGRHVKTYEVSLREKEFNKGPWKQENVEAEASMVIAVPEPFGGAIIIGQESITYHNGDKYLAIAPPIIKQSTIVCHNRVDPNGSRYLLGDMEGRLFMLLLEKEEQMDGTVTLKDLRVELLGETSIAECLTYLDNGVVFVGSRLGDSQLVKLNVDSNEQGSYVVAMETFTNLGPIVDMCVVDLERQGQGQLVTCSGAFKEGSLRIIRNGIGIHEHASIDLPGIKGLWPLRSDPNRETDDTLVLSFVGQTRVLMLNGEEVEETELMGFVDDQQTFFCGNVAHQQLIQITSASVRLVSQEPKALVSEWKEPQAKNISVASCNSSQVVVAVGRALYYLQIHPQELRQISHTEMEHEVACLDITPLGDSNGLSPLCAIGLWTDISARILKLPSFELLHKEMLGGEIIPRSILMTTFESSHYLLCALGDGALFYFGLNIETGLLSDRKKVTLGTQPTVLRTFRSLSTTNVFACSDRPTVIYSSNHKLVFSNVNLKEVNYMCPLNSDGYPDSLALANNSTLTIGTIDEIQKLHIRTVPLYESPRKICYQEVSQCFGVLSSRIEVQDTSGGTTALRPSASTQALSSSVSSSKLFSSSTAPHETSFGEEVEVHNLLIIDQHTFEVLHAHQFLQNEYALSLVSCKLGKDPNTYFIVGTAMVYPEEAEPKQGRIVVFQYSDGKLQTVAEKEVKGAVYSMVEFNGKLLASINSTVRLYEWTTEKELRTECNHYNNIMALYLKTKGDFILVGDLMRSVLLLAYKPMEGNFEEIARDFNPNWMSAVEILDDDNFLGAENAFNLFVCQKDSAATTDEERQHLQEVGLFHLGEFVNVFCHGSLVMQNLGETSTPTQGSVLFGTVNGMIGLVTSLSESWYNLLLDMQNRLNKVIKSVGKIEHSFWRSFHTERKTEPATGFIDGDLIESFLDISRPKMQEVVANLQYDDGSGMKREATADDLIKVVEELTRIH
T1 sequence (Q8BX22 410-438): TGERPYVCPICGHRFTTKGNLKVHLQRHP
T2 sequence (Q96SW2 40-442): as the sequence (Q96SW2 40-442) above
T2 sequence (Q16531 whole entry partner, the tested form may be a part): as the sequence (Q16531 whole entry partner, the tested form may be a part) above
T3 sequence (Q8C7D2 whole entry partner): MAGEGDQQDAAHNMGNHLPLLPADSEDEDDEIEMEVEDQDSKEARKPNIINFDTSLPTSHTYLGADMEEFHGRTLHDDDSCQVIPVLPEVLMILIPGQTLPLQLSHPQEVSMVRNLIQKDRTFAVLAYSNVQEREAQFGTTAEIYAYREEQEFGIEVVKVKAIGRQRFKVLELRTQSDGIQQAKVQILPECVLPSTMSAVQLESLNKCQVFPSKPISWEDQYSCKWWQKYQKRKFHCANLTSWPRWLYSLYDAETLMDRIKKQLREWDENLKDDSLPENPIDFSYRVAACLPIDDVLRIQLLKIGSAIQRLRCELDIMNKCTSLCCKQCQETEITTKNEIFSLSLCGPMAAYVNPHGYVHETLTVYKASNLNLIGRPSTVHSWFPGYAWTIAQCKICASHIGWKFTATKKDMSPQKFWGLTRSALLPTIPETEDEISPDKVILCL
T3 sequence (Q3U1J4 whole entry partner): as the sequence (Q16531 whole entry partner, the tested form may be a part) above, with N418G, A495G, T745S, T1020A counted along it
T3 sequence (Q8BX22 whole entry): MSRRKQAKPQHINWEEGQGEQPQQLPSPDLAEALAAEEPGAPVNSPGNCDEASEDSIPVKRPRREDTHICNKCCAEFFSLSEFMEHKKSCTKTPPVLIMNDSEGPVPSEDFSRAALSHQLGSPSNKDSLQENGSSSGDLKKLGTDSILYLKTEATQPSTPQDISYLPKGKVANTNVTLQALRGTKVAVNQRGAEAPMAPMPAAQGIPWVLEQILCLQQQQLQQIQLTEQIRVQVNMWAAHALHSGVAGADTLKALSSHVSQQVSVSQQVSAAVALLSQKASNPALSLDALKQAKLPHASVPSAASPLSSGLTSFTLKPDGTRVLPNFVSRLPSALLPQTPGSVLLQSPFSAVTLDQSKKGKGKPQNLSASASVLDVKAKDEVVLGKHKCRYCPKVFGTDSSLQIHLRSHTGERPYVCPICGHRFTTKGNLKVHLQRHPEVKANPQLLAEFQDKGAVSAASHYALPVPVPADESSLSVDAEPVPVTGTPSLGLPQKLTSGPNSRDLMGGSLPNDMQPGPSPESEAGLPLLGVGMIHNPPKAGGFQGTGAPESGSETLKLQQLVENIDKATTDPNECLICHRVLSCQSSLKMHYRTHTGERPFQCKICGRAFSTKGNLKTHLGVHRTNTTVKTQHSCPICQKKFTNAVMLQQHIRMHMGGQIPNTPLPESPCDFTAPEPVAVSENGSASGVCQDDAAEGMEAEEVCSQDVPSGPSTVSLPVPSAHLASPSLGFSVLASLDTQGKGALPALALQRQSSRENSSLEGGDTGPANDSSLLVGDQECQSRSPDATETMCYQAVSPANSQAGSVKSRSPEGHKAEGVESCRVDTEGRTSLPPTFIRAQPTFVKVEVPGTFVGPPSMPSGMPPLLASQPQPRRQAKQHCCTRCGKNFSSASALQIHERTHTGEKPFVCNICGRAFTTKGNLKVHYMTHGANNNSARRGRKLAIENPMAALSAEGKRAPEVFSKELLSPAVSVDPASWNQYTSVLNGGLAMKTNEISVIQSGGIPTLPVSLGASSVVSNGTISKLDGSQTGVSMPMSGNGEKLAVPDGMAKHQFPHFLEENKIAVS

## O=C1CCC(N2C(=O)c3ccccc3C2=O)C(=O)N1 (stereo not drawn) [thalidomide]
[1]
  Ubiquitination of mouse SALL4 zinc finger (orthologous to human ZF2) by human cereblon: not able to ubiquitinate the mouse SALL4 zinc finger; also recorded: not efficiently ubiquitinated by mouse or human cereblon
[2]
  Ubiquitination of all 4 glycine-motif mouse SALL4 zinc fingers by human cereblon: none of them were efficiently ubiquitinated by either mouse cereblon or human cereblon; also recorded: not efficiently ubiquitinated by human or mouse cereblon
SALL4
  SALL4 protein levels in testis: exhibited no depletion of SALL4 or ZFP91; also recorded: did not cause significant degradation of either ZFP91 or SALL4
